Measurements taken from patent US9546172B2, “Pyrazolo[3,4-d]pyrimidine and pyrazolo[2,3-d]pyrimidine compounds as kinase inhibitors” (Pharmacyclics LLC, priority 2011, dated 2017).

How the values were obtained:
Type in all cases: biochemical
BMX = biological target: T1, BMX (Homo sapiens, UniProt P51813); assay: BMX kinase inhibition
T1 sequence (P51813 1-675): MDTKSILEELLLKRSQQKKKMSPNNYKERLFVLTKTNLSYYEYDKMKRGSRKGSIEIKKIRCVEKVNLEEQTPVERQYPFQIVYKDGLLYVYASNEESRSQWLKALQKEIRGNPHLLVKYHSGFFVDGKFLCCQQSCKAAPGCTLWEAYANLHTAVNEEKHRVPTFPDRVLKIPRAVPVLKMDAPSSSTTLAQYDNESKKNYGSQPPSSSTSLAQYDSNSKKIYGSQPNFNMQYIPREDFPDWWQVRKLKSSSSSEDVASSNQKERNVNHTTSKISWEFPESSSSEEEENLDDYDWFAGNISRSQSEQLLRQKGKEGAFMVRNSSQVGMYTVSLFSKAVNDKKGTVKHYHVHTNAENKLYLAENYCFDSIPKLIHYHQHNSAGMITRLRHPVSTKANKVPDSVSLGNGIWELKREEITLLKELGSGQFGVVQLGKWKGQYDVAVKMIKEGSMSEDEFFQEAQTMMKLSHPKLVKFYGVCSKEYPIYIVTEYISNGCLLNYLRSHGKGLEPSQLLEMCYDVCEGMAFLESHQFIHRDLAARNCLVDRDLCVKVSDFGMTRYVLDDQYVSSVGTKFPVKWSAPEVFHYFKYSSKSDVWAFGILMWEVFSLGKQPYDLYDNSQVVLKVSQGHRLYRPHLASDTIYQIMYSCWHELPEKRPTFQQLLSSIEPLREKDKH

CSK = CSK (Homo sapiens, UniProt P41240); assay: CSK kinase inhibition
BLK = BLK (Homo sapiens, UniProt P51451); assay: BLK kinase inhibition
Protocol: (§1) Btk kinase activity was determined using a time-resolved fluorescence resonance energy transfer (TR-FRET) methodology. Measurements were performed in a reaction volume of 50 μL using 96-well assay plates. […] The reaction was quenched by the addition of 1.2 equivalents of EDTA (relative to divalent cation) in 25 μL of 1× Lance buffer (Perkin-Elmer). Streptavidin-APC (Perkin-Elmer) and Eu-labeled p-Tyr100 antibody (Perkin-Elmer) in 1× Lance buffer were added in a 25 μL volume to give final concentrations of 100 nM and 2.5 nM, respectively, and the mixture was allowed to incubate for one hour. The TR-FRET signal was measured on a multimode plate reader with an excitation wavelength (λEx) of 330 nm and detection wavelengths (λEm) of 615 and 665 nm. Activity was determined by the ratio of the fluorescence at 665 nm to that at 615 nm. For each compound, enzyme activity was measured at various concentrations of compound. Negative control reactions were performed in the absence of inhibitor in replicates of six, and two no-enzyme controls were used to determine baseline fluorescence levels Inhibition constants, Ki(app), were obtained using the program BatchKi (Kuzmic et al. (2000), Anal. Biochem. 286:45-50). IC50s were obtained according to the equation: IC50={Ki(app)/(1+[ATP]/Km^ATP)}+[E]total/2; For all kinases, [ATP]=Km^ATP, [Btk]total=0.5 nM and [Lck]total=6 nM.

Lck = Lck (Homo sapiens, UniProt P06239); assay: Lck kinase inhibition
Protocol: as §1

C-src = C-src (Homo sapiens, UniProt P12931); assay: C-src kinase inhibition
Protocol: as §1

RET = RET (Homo sapiens, UniProt P07949); assay: RET kinase inhibition
Btk = biological target: T2, Btk (Homo sapiens, UniProt Q06187); assay: Btk in vitro inhibitory activity (one of Methods A, B, C); settings: determined in one of three in vitro assays (Examples 125-127)
T2 construct: purified from insect cells as a full-length construct containing a N-terminal 6×-His tag; 6xHis (N); host or cells: insect cells (baculovirus Sf21 in Method B)
Protocol: The Btk IC50s of compounds disclosed herein was determined in one of the three in vitro assays described in Examples 125-127.
as §1
Kinase activity is measured in vitro using electrophoretic mobility shift assay. The kinase reactions are assembled in a total volume of 25 μL in 384 well plates. […] The reaction is incubated for one hour and is quenched by the addition of 45 μL of termination buffer (100 mM HEPES, pH7.5, 0.01% Triton X-100, 30 mM EDTA). The terminated reactions are analyzed using 12 channel LabChip® 3000 microfluidic detection instrument (Caliper Life Sciences). The enzymatic phosphorylation of the peptide results in a change in net charge, enabling electrophoretic separation of product from substrate peptide. As substrate and product peptides are separated, two peaks of fluorescence are observed. Change in the relative fluorescence intensity of the substrate and product peaks is the parameter measured, reflecting enzyme activity. In the presence of an inhibitor, the ratio between product and substrate is altered: the signal of the product decreases, while the signal of the substrate increases.
Activity in each sample is determined as the product to sum ratio (PSR): P/(S+P), where P is the peak height of the product peptide and S is the peak height of the substrate peptide. For each compound, enzyme activity is measured at various concentrations (12 concentrations of compound spaced by 3× dilution intervals). Negative control samples (0%-inhibition in the absence of inhibitor) and positive control samples (100%-inhibition, in the presence of 20 mM EDTA) are assembled in replicates of four and are used to calculate %-inhibition values for each inhibitor at each concentration. Percent inhibition (Pinh) is determined using following equation: Pinh=(PSR0%−PSRinh)/(PSR0%−PSR100%)*100, where PSRinh is the product sum ratio in the presence of inhibitor, PSR0% is the average product sum ration in the absence of inhibitor and PSR100% is the average product sum ratio in 100%-inhibition control samples;
The IC50 values of inhibitors are determined by 4 parameter sigmoidal dose-response model fitting of the inhibition curves (Pinh versus inhibitor concentration) using XLfit 4 software.
Human Btk kinase (Genbank accession # NP_000052) was purified from insect cells as a full-length construct containing a N-terminal 6×-His tag. Btk kinase activity was determined using a radiometric filter binding assay. Measurements are performed in a low reaction volume 384-well assay plates. […]

EGFR = EGFR (Homo sapiens, UniProt P00533); assay: EGFR kinase inhibition
Tec = biological target: T3, Tec (Homo sapiens, UniProt P42680); assay: Tec kinase inhibition
T3 sequence (P42680 1-631): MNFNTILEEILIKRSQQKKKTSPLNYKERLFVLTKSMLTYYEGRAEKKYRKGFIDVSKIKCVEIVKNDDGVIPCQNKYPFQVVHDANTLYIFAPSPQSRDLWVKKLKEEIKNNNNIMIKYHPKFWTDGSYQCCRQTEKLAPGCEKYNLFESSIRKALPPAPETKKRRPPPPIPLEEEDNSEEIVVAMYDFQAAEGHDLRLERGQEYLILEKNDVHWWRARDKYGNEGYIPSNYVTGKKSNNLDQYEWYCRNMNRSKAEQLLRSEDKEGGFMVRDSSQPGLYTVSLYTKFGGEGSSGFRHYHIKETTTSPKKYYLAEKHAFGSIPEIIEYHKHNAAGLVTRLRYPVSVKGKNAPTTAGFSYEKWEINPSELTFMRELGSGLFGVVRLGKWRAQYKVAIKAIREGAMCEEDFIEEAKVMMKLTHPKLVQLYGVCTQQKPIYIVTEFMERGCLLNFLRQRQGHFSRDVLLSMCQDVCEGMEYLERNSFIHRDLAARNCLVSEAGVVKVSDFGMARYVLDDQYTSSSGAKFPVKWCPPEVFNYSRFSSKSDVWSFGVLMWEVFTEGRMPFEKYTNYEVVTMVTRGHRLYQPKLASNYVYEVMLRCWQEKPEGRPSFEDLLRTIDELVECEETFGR
Protocol: as §1

Lyn = Lyn (Homo sapiens, UniProt P07948); assay: Lyn kinase inhibition
Lyn, sequence (P07948 whole entry): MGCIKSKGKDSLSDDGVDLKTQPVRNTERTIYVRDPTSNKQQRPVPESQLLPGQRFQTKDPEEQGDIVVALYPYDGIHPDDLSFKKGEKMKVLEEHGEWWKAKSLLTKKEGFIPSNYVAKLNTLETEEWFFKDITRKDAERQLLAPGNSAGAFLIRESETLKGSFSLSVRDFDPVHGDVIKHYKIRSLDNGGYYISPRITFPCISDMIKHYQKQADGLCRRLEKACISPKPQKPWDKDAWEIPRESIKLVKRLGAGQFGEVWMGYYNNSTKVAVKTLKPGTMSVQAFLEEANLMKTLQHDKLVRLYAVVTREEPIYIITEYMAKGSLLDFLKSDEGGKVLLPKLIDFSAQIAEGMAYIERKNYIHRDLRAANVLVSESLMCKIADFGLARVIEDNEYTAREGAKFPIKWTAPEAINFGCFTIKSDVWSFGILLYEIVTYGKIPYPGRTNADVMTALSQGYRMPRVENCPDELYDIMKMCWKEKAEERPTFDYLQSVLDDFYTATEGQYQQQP

BLK, sequence (P51451 whole entry): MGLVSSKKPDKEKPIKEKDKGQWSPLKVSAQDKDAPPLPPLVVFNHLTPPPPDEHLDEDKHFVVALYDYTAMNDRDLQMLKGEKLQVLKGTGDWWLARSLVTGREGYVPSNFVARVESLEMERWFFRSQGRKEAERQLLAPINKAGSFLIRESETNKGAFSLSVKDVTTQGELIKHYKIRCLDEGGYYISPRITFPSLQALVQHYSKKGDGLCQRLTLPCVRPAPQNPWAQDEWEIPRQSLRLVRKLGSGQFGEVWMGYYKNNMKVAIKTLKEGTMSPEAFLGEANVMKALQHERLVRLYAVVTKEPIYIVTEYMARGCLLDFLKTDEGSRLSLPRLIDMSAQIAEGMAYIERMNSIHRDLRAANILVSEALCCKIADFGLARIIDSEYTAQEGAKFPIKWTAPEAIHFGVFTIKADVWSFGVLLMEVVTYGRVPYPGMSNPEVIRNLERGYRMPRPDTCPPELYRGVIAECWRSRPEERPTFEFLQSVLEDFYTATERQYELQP
Lck, sequence (P06239 whole entry): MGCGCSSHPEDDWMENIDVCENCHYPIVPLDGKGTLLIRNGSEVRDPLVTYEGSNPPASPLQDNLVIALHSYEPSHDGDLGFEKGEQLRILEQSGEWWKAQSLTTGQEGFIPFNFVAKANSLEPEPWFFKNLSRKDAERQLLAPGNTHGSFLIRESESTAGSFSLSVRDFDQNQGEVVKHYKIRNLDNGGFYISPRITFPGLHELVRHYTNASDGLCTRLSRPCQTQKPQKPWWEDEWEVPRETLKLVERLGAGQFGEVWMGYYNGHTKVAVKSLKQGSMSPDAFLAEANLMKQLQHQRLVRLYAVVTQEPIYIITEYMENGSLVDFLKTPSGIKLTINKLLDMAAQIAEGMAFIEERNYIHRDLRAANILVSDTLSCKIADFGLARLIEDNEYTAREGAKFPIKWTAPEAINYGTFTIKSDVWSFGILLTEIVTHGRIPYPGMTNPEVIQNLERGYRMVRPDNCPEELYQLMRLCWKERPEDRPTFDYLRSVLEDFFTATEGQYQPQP
C-src, sequence (P12931 whole entry): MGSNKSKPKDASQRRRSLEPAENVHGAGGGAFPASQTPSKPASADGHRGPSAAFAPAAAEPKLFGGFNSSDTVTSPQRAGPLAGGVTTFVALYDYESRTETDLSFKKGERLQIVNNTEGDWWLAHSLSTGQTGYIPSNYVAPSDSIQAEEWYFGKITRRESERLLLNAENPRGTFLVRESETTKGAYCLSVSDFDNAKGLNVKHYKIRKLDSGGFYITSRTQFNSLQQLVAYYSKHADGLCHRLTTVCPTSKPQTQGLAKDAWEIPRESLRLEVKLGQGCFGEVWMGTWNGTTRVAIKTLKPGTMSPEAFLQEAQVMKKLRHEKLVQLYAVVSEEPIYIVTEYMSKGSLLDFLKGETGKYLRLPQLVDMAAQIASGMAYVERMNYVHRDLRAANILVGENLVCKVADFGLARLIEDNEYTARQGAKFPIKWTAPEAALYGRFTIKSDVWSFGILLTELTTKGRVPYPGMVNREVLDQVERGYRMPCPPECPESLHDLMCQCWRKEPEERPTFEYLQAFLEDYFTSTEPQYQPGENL
T2 sequence (Q06187 whole entry): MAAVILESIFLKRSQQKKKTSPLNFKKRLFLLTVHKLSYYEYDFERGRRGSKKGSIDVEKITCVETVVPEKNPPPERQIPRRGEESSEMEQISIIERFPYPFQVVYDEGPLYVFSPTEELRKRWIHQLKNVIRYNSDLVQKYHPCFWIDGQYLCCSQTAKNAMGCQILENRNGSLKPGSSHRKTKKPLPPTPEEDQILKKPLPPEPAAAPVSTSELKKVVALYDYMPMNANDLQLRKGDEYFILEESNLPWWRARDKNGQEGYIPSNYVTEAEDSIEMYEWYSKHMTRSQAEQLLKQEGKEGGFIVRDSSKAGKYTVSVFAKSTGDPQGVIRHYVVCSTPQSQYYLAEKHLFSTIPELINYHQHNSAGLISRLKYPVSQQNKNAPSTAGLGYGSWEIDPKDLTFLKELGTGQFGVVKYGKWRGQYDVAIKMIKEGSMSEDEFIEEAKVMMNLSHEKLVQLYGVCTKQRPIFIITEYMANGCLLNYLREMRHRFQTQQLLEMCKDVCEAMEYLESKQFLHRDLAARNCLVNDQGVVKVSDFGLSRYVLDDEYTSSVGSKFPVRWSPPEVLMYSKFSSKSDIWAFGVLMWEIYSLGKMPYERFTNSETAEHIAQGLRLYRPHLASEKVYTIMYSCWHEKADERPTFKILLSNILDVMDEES
EGFR, sequence (P00533 25-1210): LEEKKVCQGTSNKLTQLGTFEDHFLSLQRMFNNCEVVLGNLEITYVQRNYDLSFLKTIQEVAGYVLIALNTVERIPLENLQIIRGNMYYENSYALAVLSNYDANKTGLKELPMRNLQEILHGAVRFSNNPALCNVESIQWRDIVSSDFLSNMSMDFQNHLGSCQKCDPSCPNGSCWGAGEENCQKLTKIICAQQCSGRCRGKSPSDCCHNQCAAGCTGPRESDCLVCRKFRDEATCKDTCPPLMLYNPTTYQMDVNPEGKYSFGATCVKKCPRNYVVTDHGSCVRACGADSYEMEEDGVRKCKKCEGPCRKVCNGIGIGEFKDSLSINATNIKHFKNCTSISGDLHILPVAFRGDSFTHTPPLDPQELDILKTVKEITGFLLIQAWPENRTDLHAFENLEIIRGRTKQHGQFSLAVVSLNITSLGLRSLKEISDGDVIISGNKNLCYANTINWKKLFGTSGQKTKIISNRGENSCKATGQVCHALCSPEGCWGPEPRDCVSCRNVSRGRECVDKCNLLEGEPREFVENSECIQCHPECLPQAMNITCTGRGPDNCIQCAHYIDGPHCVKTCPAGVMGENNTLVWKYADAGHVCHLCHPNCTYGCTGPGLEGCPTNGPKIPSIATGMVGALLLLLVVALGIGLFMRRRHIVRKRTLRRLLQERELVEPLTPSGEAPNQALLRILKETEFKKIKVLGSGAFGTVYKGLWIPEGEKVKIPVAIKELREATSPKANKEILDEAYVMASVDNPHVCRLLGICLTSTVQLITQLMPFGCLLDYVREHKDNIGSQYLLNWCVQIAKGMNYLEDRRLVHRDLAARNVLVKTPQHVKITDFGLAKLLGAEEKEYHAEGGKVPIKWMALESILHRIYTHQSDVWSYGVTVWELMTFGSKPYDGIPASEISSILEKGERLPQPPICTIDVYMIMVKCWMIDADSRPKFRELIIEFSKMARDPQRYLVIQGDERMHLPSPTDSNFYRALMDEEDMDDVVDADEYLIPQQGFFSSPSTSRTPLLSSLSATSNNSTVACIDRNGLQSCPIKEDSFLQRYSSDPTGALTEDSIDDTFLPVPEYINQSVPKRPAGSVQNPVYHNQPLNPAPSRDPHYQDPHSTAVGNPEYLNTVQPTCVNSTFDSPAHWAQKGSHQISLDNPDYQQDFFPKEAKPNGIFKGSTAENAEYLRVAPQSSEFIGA
CSK, sequence (P41240 whole entry): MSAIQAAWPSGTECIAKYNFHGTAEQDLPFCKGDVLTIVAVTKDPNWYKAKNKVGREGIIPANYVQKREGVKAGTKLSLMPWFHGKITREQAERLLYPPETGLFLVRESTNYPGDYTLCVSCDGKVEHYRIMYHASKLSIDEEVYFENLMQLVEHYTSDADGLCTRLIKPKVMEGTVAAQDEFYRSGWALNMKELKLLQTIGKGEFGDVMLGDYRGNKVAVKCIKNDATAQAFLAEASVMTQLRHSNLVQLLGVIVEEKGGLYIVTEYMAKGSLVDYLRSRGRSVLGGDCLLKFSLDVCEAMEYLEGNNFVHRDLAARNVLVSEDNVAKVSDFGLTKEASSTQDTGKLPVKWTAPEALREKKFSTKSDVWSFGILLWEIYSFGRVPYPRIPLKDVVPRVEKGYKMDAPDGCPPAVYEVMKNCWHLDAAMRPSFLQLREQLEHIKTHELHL

SMILES	IC50 (BMX) [nM]	IC50 (CSK) [nM]	IC50 (BLK) [nM]	IC50 (Lck) [nM]	IC50 (C-src) [nM]	IC50 (RET) [nM]	IC50 (Btk) [nM]	IC50 (EGFR) [nM]	IC50 (Tec) [nM]	IC50 (Lyn) [nM]
CN(C)C/C=C/C(=O)N1CC[C@@H](n2nc(-c3ccc(Cl)cc3)c3c(N)ncnc32)C1 [Example 1, (E)-1-((R)-3-(4-amino-3-(4-chlorophenyl)-1H-pyrazolo[3,4-d]pyrimidin-1-yl)pyrrolidin-1-yl)-4-(dimethylamino)but-2-en-1-one]	< 100	100 to 1000	< 100	100 to 1000	< 100	100 to 1000	< 100	100 to 1000	< 100	100 to 1000
COCCOc1ccc(-c2nn([C@@H]3CCN(C(=O)/C=C/CN(C)C)C3)c3ncnc(N)c23)cc1 [Example 2, (E)-1-((R)-3-(4-amino-3-(4-(2-methoxyethoxy)phenyl)-1H-pyrazolo[3,4-d]pyrimidin-1-yl)pyrrolidin-1-yl)-4-(dimethylamino)but-2-en-1-one]	< 100	> 1000	< 100	> 1000	> 1000	> 1000	< 100	–	100 to 1000	> 1000
CN(C)C/C=C/C(=O)N1CC[C@@H](n2nc(-c3ccc(F)cc3)c3c(N)ncnc32)C1 [Example 3, (R,E)-1-(3-(4-amino-3-(4-fluorophenyl)-1H-pyrazolo[3,4-d]pyrimidin-1-yl)pyrrolidin-1-yl)-4-(dimethylamino)but-2-en-1-one]	< 100	> 1000	100 to 1000	> 1000	100 to 1000	> 1000	< 100	> 1000	< 100	> 1000
Cc1ccc(-c2nn([C@@H]3CCN(C(=O)/C=C/CN(C)C)C3)c3ncnc(N)c23)cc1 [Example 4, (R,E)-1-(3-(4-amino-3-p-tolyl-1H-pyrazolo[3,4-d]pyrimidin-1-yl)pyrrolidin-1-yl)-4-(dimethylamino)but-2-en-1-one]	< 100	> 1000	< 100	100 to 1000	100 to 1000	100 to 1000	< 100	100 to 1000	< 100	100 to 1000
COc1ccc(-c2nn([C@@H]3CCN(C(=O)/C=C/CN(C)C)C3)c3ncnc(N)c23)cc1 [Example 5, (R,E)-1-(3-(4-amino-3-(4-methoxyphenyl)-1H-pyrazolo[3,4-d]pyrimidin-1-yl)pyrrolidin-1-yl)-4-(dimethylamino)but-2-en-1-one]	< 100	> 1000	< 100	100 to 1000	100 to 1000	100 to 1000	< 100	> 1000	< 100	100 to 1000
COc1cc(-c2nn(-c3ccc(NC(=O)/C=C/CN(C)C)cc3)c3ncnc(N)c23)ccc1C [Example 16, (E)-N-(4-(4-amino-3-(3-methoxy-4-methylphenyl)-1H-pyrazolo[3,4-d]pyrimidin-1-yl)phenyl)-4-(dimethylamino)but-2-enamide]	< 100	< 100	< 100	< 100	< 100	–	< 100	< 100	< 100	< 100
CN(C)C/C=C/C(=O)Nc1ccc(-n2nc(-c3ccc(Cl)cc3)c3c(N)ncnc32)cc1 [Example 17, (E)-N-(4-(4-amino-3-(4-chlorophenyl)-1H-pyrazolo[3,4-d]pyrimidin-1-yl)phenyl)-4-(dimethylamino)but-2-enamide]	< 100	100 to 1000	< 100	< 100	< 100	–	< 100	< 100	< 100	< 100
COc1cc(-c2nn(-c3cccc(N(C)C(=O)/C=C/CN(C)C4CC4)c3)c3ncnc(N)c23)ccc1C [Example 24, (E)-N-(3-(4-amino-3-(3-methoxy-4-methylphenyl)-1H-pyrazolo[3,4-d]pyrimidin-1-yl)phenyl)-4-(cyclopropyl(methyl)amino)-N-methylbut-2-enamide]	< 100	> 1000	< 100	100 to 1000	100 to 1000	> 1000	< 100	–	< 100	< 100
CN(C(=O)/C=C/CN(C)C1CC1)c1cccc(-n2nc(-c3ccc(Cl)cc3)c3c(N)ncnc32)c1 [Example 25, (E)-N-(3-(4-amino-3-(4-chlorophenyl)-1H-pyrazolo[3,4-d]pyrimidin-1-yl)phenyl)-4-(cyclopropyl(methyl)amino)-N-methylbut-2-enamide]	< 100	> 1000	100 to 1000	> 1000	100 to 1000	–	< 100	< 100	< 100	> 1000
